From patent US9108951B2, “Substituted 5,6,7,8-tetrahydro-1,6-naphthyridines as factor XIa inhibitors” (BRISTOL-MYERS SQUIBB COMPANY, priority 2011, dated 2015)
Where a name gives a salt, the structure may show the parent alone.

Target: purified human Factor XIa (Homo sapiens (Human), UniProt P03951)
Assay: Factor XIa assay (chromogenic substrate hydrolysis, Ki)
Format: biochemical
Details: synthetic substrate S-2366, 50 mM HEPES pH 7.4
Protocol: The effectiveness of compounds of the present invention as inhibitors of the coagulation factors XIa, VIIa, IXa, Xa, XIIa, plasma kallikrein or thrombin, can be determined using a relevant purified serine protease, respectively, and an appropriate synthetic substrate. The rate of hydrolysis of the chromogenic or fluorogenic substrate by the relevant serine protease was measured both in the absence and presence of compounds of the present invention. […] A decrease in the rate of absorbance or fluorescence change in the presence of inhibitor is indicative of enzyme inhibition. Such methods are known to one skilled in the art. The results of this assay are expressed as the inhibitory constant, Ki.
Values of Ki were determined by allowing the protease to react with the substrate in the presence of the inhibitor. Reactions were allowed to go for periods of 20-180 minutes (depending on the protease) and the velocities (rate of absorbance or fluorescence change versus time) were measured. The following relationships were used to calculate Ki values: (vo−vs)/vs=I/(Ki(1+S/Km)) for a competitive inhibitor with one binding site; or vs/vo=A+((B−A)/1+((IC50/(I)n))); and Ki=IC50/(1+S/Km) for a competitive inhibitor where: […]

purified human Factor XIa, sequence (P03951 388-625): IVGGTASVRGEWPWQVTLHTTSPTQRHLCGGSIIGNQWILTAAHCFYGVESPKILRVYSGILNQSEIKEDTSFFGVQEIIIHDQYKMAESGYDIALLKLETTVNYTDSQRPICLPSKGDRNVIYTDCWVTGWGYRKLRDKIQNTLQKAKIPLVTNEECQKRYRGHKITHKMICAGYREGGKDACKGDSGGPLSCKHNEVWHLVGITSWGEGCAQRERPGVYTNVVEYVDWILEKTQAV
purified human Factor XIa, sequence (P03951 19-387 partner): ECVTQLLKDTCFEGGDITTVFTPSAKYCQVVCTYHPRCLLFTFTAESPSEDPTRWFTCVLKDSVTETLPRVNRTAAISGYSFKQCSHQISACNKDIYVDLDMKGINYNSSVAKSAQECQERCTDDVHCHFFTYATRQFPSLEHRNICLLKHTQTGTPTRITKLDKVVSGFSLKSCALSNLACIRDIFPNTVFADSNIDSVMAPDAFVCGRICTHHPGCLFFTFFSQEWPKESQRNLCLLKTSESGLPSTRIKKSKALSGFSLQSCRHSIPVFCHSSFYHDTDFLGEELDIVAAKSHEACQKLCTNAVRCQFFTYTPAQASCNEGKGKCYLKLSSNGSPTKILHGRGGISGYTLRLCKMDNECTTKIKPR

| SMILES | Ki |
| --- | --- |
| Cc1[nH]nc2c1C(C(=O)Nc1ccc(C(=O)O)cc1)N(C(=O)/C=C/c1c(-n3cnnn3)ccc(Cl)c1F)CC2 (centres unmarked) [Example 77, (E)-4-(5-(3-(3-chloro-2-fluoro-6-(1H-tetrazol-1-yl)phenyl)acryloyl)-3-methyl-4,5,6,7-tetrahydro-2H-pyrazolo[4,3-c]pyridine-4-carboxamido)benzoic acid, TFA salt] | 5.02 nM |
| NC(=O)c1ccc(-c2nccc3c2CCN(C(=O)/C=C/c2c(-n4cnnn4)ccc(Cl)c2F)C3C(=O)Nc2ccc3cn[nH]c3c2)cc1 (centres unmarked) [Example 23, (E)-5-(4-Carbamoylphenyl)-2-(3-(3-chloro-2-fluoro-6-(1H-tetrazol-1-yl)phenyl)acryloyl)-N-(1H-indazol-6-yl)-1,2,3,4-tetrahydro-2,6-naphthyridine-1-carboxamide, TFA salt] | < 5 nM |
| O=C(O)c1ccc(NC(=O)C2c3ccnc(N4CCOCC4)c3CCN2C(=O)/C=C/c2c(-n3cnnn3)ccc(Cl)c2F)cc1 (centres unmarked) [Example 28, (E)-4-(2-(3-(3-Chloro-2-fluoro-6-(1H-tetrazol-1-yl)phenyl)acryloyl)-5-morpholino-1,2,3,4-tetrahydro-2,6-naphthyridine-1-carboxamido)benzoic acid, TFA Salt] | < 5 nM |
| CC1(C)CN(C(=O)/C=C/c2cc(Cl)ccc2-n2cnnn2)C(C(=O)Nc2ccc(C(=O)O)cc2)c2c(Br)cccc21 (centres unmarked) [Example 55, (E)-4-(8-bromo-2-(3-(5-chloro-2-(1H-tetrazol-1-yl)phenyl)acryloyl)-4,4-dimethyl-1,2,3,4-tetrahydroisoquinoline-1-carboxamido)benzoic acid] | 172 nM |
| O=C(Nc1ccc(C2CCCN2)cc1)[C@@H]1c2ccccc2CCN1C(=O)/C=C/c1cc(Cl)ccc1-n1cnnn1 (stereo partly drawn) [Example 40, (1S)-2-((E)-3-(5-Chloro-2-(1H-tetrazol-1-yl)phenyl)acryloyl)-N-(4-(pyrrolidin-2-yl)phenyl)-1,2,3,4-tetrahydroisoquinoline-1-carboxamide, TFA salt] | 6730 nM |
| Cc1[nH]nc2c1C(C(=O)Nc1ccc(C(=O)OC(C)(C)C)cc1)N(C(=O)/C=C/c1c(-n3cnnn3)ccc(Cl)c1F)CC2 (centres unmarked) [Example 76, (E)-tert-butyl 4-(5-(3-(3-chloro-2-fluoro-6-(1H-tetrazol-1-yl)phenyl)acryloyl)-3-methyl-4,5,6,7-tetrahydro-2H-pyrazolo[4,3-c]pyridine-4-carboxamido)benzoate, TFA salt] | 566 nM |
| CCc1nn(C)c2c1C(C(=O)Nc1ccc(C(=O)O)cc1)N(C(=O)/C=C/c1cc(Cl)ccc1-n1cnnn1)CC2 (centres unmarked) [Example 65, (E)-4-(5-(3-(5-Chloro-2-(1H-tetrazol-1-yl)phenyl)acryloyl)-3-ethyl-1-methyl-4,5,6,7-tetrahydro-1H-pyrazolo[4,3-c]pyridine-4-carboxamido)benzoic acid, TFA salt] | 23.3 nM |
| O=C(O)c1ccc(NC(=O)[C@@H]2c3ccccc3CCN2C(=O)C#Cc2cc(Cl)ccc2-n2cnnn2)cc1 [Example 48, (S)-4-(2-(3-(5-Chloro-2-(1H-tetrazol-1-yl)phenyl)propioloyl)-1,2,3,4-tetrahydroisoquinoline-1-carboxamido)benzoic acid] | 7.08 nM |
